The values that follow come from patent publication US20250114335A1, “METHODS AND COMPOSITIONS FOR THE TREATMENT OF EPILEPSY” (ARIZONA BOARD OF REGENTS ON BEHALF OF THE UNIVERSITY OF …, priority 2022, published 2025).

Molecules are shown by their SMILES. “And” between values parts separate entries of the source, which are not always exact repeats. Identical values can stand only once.

Assay [1] has as its system B6-D/D (Scn8a-N1768D) juvenile mice. The conditions noted are these: CBD-treated B6-D/D males, comparison; cited from earlier work.
For assay [2], the system named is B6-D/+ (Scn8a-N1768D) adult mice. The settings on record: CBD-treated B6-D/+ males, comparison; cited from earlier work.
The test system of assay [3] is B6-D/D (Scn8a-N1768D) juvenile mice. Description: Survival and seizure frequency, B6-D/D juvenile mice. The assay is classed as in vivo, mouse. From the text:
Mouse strains: The C57BL/6J-N1768D congenic mouse (B6-D/+) was used for phenotyping, RNAseq, and BBB studies. In addition, a hybrid strain that was produced by backcross breeding to transfer the Scn8a-N1768D allele from the B6 to the C3H/HeJ strain background was used to further assess the effect of CND on survival and seizure frequency. After constructing an F1 by crossing male B6-D/+ heterozygotes to female C3H/HeJ, five rounds of backcrossing (N6) produced a […] and 98.5% C3H/HeJ-N1768D line (C3H-D/+). Sister-brother mating maintained the 98.5% C3H background. […] C3H-D/D mice have a delayed seizure onset (˜40-45 days) and an extended survival (65-70 days) with intermittent bouts of TCs (FIG. 1A).
Phenotyping: Female and male mice on both the B6 and C3H backgrounds were housed in sex-specific groups of 3-4 per cage in a pathogen-free mouse facility with a 14 h light/10 h dark cycle (lights turned on at 5 am). A 24/7 video monitoring system was utilized to collect seizure data, with infrared illumination to monitor behavior during the dark period. Seizures were counted as individual TCs. Adult mice were followed from the age of 6 weeks, a period of time well before seizure onset, in order to identify the day of seizure onset. A seizure bout was defined as a cluster of seizures on consecutive days, and a gap as a seizure-free period of 3 days or more.
Preparation of CND suspension for injections and oral dosing: Juvenile B6-D/D and adult B6-D/+ mice were given subcutaneous (s.c.) injections with either CND (2-4 mg/kg/day; doses that fall within the FDA-approved range for CND in both adults and children) or vehicle (VEH) (Sigma-Aldrich) (FIG. 1B). Oral dosing of adults was performed by thoroughly mixing 160 μl of suspension containing 1.28 mg of CND or VEH with 5 g of pure (organic) peanut butter in a petri dish. Mice were given 1 g pellet per mouse each day. Pellets were weighed each day to record the amount consumed, and 24/7 video was used to verify that each mouse was consuming the pellet. An average of 0.79 g (±0.36 g) was consumed by an adult mouse (˜20-25 g), corresponding to 9.1±4.2 mg/kg/day. No correlations were found for the amount of CND consumed and lifetime survival or number of TCs.
Survival and seizure frequency studies: B6-D/D mice were injected with CND (n=10) or VEH (n=10) at 15 days of age (P15) and followed to monitor TCs by 24/7 video recording until death (FIG. 1B). A separate set of 10 B6-D/D mice was administered a daily s.c. injection of 25 mg/kg/day phenytoin (PHT) suspension or VEH (US Pharmacopeia, Sigma-Aldrich). Oral administration of CND or VEH was initiated at the time of seizure onset (range P75-P85) for adult B6-D/+ females (N=10) and males (N=10) (FIG. 1B). Mice were monitored for seizures by 24/7 video recording until the time of death.

`C=C(C)[C@@H]1CCC(C)=C[C@H]1c1c(O)cc(CCCCC)cc1O` [CBD]: the entries for the “standard effect size, survival” value in assay [1] and in assay [2] were 0.35 and 0.50, respectively.

With `O=C1NC(=O)C(c2ccccc2)(c2ccccc2)N1` [PHT, phenytoin], the “survival of juveniles (in words)” value in assay [3] (B6-D/D Juveniles) was “minor increase in survival that did not reach statistical significance”. For the same molecule, in assay [3] (B6-D/D juveniles, Treated), the “#TCs” value is reported as 55.9 TCs; the “#TCs/day (Life)” value was found to be 1.9 TCs/day; the “#TCs/day (PostTC)” value was 10.2±7.1 TCs/day and 10.2 TCs/day; the “#gaps” value came to 1.2. For the same molecule, in assay [3] (B6-D/D juveniles, Treated), the “Age at Onset” value is on record as 22.2, the “Days with TCs” value stood at 6.8 days, the gap days is 5.2 days and the mean gap length was found to be 3.5. Besides, the “Age at Death” value in assay [3] (B6-D/D juveniles, Treated, daily s.c. injection) is 30.1 ± 5.1 days and 30.1 days.
